One experiment deals with ZmHMGR mRNA. The experiment in a line: Exogenous sterol feeding of maize seedlings, relative mRNA quantification of ZmHMGR. The format is in vivo. The conditions noted are these: for ZmHMGR mRNA: wild type W22 roots.
The next experiment has as its system ZmSMT2 mRNA. The experiment in a line: Exogenous sterol feeding of maize seedlings, relative mRNA quantification of ZmSMT2. The conditions noted are these: for ZmSMT2 mRNA: wild type W22 roots. The format is in vivo. Here is the method: FIG. 6C-D show relative mRNA quantification of ZmHMGR and ZmSMT2 genes in Zmcyp710a8-1 background in response to various sterols (10 μM) for 4 hours in roots (FIG. 6C) and in shoots (FIG. 6D). ZmACTIN served as the reference gene for normalization. Data are means±SD. Asterisks indicate statistical significance by Students t-test compared to 0 h in FIG. 6A and to Mock in FIG. 6B, FIG. 6C, and FIG. 6D. *P<0.05 **P<0.01 ***P<0.001; ns, not significant.

Experiment [1] has as its system Zmcyp710a8-1 mutant root metabolites. The experiment in a line: Exogenous stigmasterol feeding of Zmcyp710a8-1 mutant, metabolite levels in root tissue (GC/MS). The format is in vivo, maize. The conditions noted are these: root tissue of Zmcyp710a8-1 null mutant with exogenous stigmasterol feeding, compared with W22. From the text:
Relative metabolite levels in the two maize mutants compared to their wild type are shown as fold changes in Root and Shoot. […] Asterisks indicate statistical significance by Students t-test compared to Zmcyp710a8-1. *P<0.05 **P<0.01 ***P<0.001.
To identify cellular metabolites influenced by stigmasterol, non-targeted GC/MS metabolite analysis of roots and shoots of maize Zmcyp710a8 and wild type was used. A total of 29 molecular features (13 known and 16 unknown molecular features) were identified in roots and 31 features (17 known and 14 unknown molecular features) in shoots (FIG. 7). The concentration of molecular features correlated with stigmasterol content among genotypes in maize and the features belonged to similar classes including sterol, amino acid, primary metabolism, and unknown features in roots and shoots (FIG. 7).
Since changes in metabolites among the genotypes correlated with stigmasterol content, it was reasoned that exogenous stigmasterol may reverse the metabolite levels in Zmcyp710a8-1 mutant to wild type levels.

Where [2] appears, read: 10 μM sterol feeding, after 4 and 8 h.
[3] abbreviates: roots and shoots of Zmcyp710a8-1, 10 μM sterol, 4 hours.

SMILES strings stand for the structures.

For the molecule `CC[C@H](CC[C@@H](C)[C@H]1CC[C@H]2[C@@H]3CC=C4C[C@@H](O)CC[C@]4(C)[C@H]3CC[C@]12C)C(C)C` [sitosterol], the “ZmHMGR mRNA” value with ZmHMGR mRNA (setting [2]) is recorded as “did not have a significant impact”. In addition, the “ZmSMT2 mRNA” value in the experiment with ZmSMT2 mRNA (setting [2]) was “did not have a significant impact”.
With `CC[C@H](/C=C/[C@@H](C)[C@H]1CC[C@H]2[C@@H]3CC=C4C[C@@H](O)CC[C@]4(C)[C@H]3CC[C@]12C)C(C)C` [stigmasterol], in the experiment with ZmHMGR mRNA (setting [3]), the “ZmHMGR mRNA levels” value is listed as “higher”. Further, the “ZmHMGR mRNA” value in the experiment on ZmHMGR mRNA (setting [2]) is listed as “induction”; in the experiment with ZmHMGR mRNA (10 μM stigmasterol, after 8 h), “remained elevated”. For the same molecule, the “ZmSMT2 mRNA levels” value with ZmSMT2 mRNA (setting [3]) is on record as “higher”. In addition, the “ZmSMT2 mRNA” value in the experiment on ZmSMT2 mRNA (setting [2]) is recorded as “induction”; in the experiment with ZmSMT2 mRNA (10 μM stigmasterol, after 8 h), “slightly decreased”. Also, the “levels of selected metabolites (sitosterol, campesterol, myo-inositol)” value in experiment [1] is “shifted the levels of sitosterol, campesterol, and myo-inositol toward W22 levels”.

Source of the values: patent US20240164267A1, “GENETIC MECHANISM TO ENHANCE HEALTHY STEROLS AND HARD ENDOSPERM IN SEEDS” (Iowa State University Research Foundation, Inc., priority 2022, published 2024).
